The text below walks through data of patent publication US20260199294A1, “PEPTIDE DRUG CONJUGATES” (Oncopeptides Innovation AB, priority 2022, published 2026).

The subject of data set [1] is BJ Fibroblasts (normal cells). In words: In vitro cytotoxicity (CellTiter-Glo, 72 h) in BJ fibroblasts. The class given is cell-based, human. The protocol:
(§1) All cells were cultivated in RPMI medium 1640 (IX). All media was supplemented with […] penicillin/streptomycin, 10% heat inactivated FBS, 0.1 mM Sodium Pyruvate, 1×MEM NEAA (ThermoFisher) and 1 mM HEPES. The DERL-2 cells had higher FBS (20%) and 40 ng/mL IL-2 was added. hPBMCs were thawed and allowed to acclimatise overnight and then stimulated with 10 µg/mL PHA-M and 40 ng/mL IL-2 for 4 hours before being exposed to test compounds. All cells, except for hPBMCs, were grown to reach log phase before being exposed to the test compounds.
(§2) Test compounds were dissolved in 100% DMSO and added to a 384 assay plate. Additional DMSO was added to maintain the same final DMSO concentration (0.2%) in all wells. 25 μL cell suspension with a concentration of 100000 cells/mL was added to each well. The cells were cultured in a CO2 incubator at 37° C. for 72 h. Plates were equilibrated to room temperature for 30 minutes before adding 20 μL CellTiter-Glo® 2.0 (Promega) reagent to all wells. The plate was then allowed to stabilize for 20 minutes before recording the luminescence (Em filter 700 nm) in an Envision plate reader.

For data set [2], the system named is hPBMC (Human Peripheral blood mononuclear cells). In words: In vitro cytotoxicity (CellTiter-Glo, 72 h) in hPBMC. The class given is cell-based. The note with it: stimulated with PHA-M and IL-2. The protocol: as §1, §2
Background: Cellular ATP, detected with luciferase, serves as a proxy for viable cell number.

Data set [3] concerns SU-DHL-4 human lymphoma cell line xenografts. The experiment in a line: Chicken embryo (in ovo) xenograft model, tumour weight. The class given is in vivo. Particulars: 8.4, 33.5, 167.5 μM. The protocol:
Methods: Inoculation of Fertilized White Leghorn eggs was performed with 3×10^6 SU-DHL-4 tumour cells on day 9 (post-fertilisation). Viable eggs were injected with 100 μL of either Example compound 1 (8.4 μM (0.008 mg/kg), 33.5 μM (0.033 mg/kg), 167.5 μM (0.164 mg/kg)), bendamustine (8.4 μM (0.005 mg/kg), 33.5 μM (0.02 mg/kg), 167.5 μM (0.1 mg/kg)) or vehicle on day 11, 13, 15 and 17. On day 18, tumours were removed and weighed.

The test system of data set [4] is nuclear DNA (HPRT) prepared from MM.1S cells. In words: Direct DNA damage, PCR amplification with HPRT primers. Format: biochemical, human. Particulars: 0.25 μM compound, 30 minutes at 37° C. The protocol: (§3) Method: DNA was prepared from MM.1S cells by QIAGEN genomic tip 20/G according to protocol described in Furda et al., Methods Mol Biol, 2012. 1 μg of DNA was treated with 0.25 μM compound for 30 minutes at 37° C. DMSO was used as control treatment. 20 ng of the treated DNA was PCR amplified using Phusion Hot Start II High Fidelity PCR Master Mix (Thermo Scientific) and primers directed to either HPRT or primers directed to mitochondrial DNA (mtDNA) was used, generating 10.4 or 8.9 kb fragments, respectively. The PCR reactions were separated on a 1% agarose gel and visualized by ChemiDoc™ MP Imaging System (BioRad). Example compounds 1, 2 and 38 were investigated, as were compounds 18 and 20, which are metabolites of compound 1. They were compared with bendamustine, melphalan and DMSO control. The results for compounds 1, 2, 18 and 20 with the HPRT primers are shown in FIG. 4(A); the results with the mtDNA primers are shown in FIG. 4(B).

Data set [5] has as its system mitochondrial DNA (mtDNA) prepared from MM.1S cells. The experiment in a line: Direct DNA damage, PCR amplification with mtDNA primers. The note with it: 0.25 μM compound, 30 minutes at 37° C. The class given is biochemical, human. The protocol: as §3
For the next data set, the system named is MM.1S cells. The experiment in a line: DNA fragmentation, APO-BrdU TUNEL assay by FACS. The class given is cell-based, human. The protocol:
Method: 1×10^6 MM.1S cells (CRL-2974, ATCC) were treated with Example compound 1 or Bendamustine at 0.006, 0.06, 0.6 or 6 μM for 24 h. After incubation, the cells were washed with PBS (10010-015, Gibco), fixed in Flow Cytometry Fixation Buffer (FC004, R&D Systems) for 10 min and stored in 70% ethanol at −20° C. overnight. The deoxythymidine analog (BrdUTP) was present in the experiment and served to label the DNA break sites. Next day, the cells were washed and stained using an APO-BrdU™ TUNEL Assay Kit, according to the manufacturer's protocol (A23210, Invitrogen), followed by the analysis using BD FACSCanto™ II. The percentage ofTUNEL positive cells indicates the percentage of cells with fragmented DNA.
In general terms: Flow cytometry measures light scatter and fluorescence of single cells or particles in a stream.

The nature of data set [6]: Stability of Example compound 1 in solution with various excipients (HPLC). Format: physicochemical. Particulars: 0.4 mg/mL. On the procedure: Ethyl (2S)-2-[[(2S)-2-amino-4-[5-[bis(2-chloroethyl)amino]-1-methyl-benzimidazol-2-yl]butanoyl]amino]-4-methyl-pentanoate (Example compound 1; 19.2 mg, 16.7 mg free base) was dissolved in dimethylacetamide (419 μL) to give a 40 mg/mL stock solution.
Solutions of 0.4 mg/mL of Example compound 1 were prepared by diluting the stock solution in dimethylacetamide (40 mg/mL, 10 μL) with different solutions (990 μL) according to the Table 5 and the stability after 4 h at room temperature was analyzed by HPLC (Analytical HPLC was carried out on an Agilent Series 1100 system using a Kinetex XB C18 (2.6 μm, 3.0×50 mm) column with 0.1% TFA in H2O/CH3CN as mobile phase (acid conditions) (flow 1 mL/min). The excipients were reported in weight ratio excipient:Example compound 1 (free base).

Molecules are shown by their SMILES. Entries after “also recorded” stand apart in the source; their conditions may differ.

For `CCOC(=O)[C@H](CC(C)C)NC(=O)[C@@H](N)CCc1nc2cc(N(CCCl)CCCl)ccc2n1C` [Example compound 1, Ethyl (2S)-2-[[(2S)-2-amino-4-[5-[bis(2-chloroethyl)amino]-1-methyl-benzimidazol-2-yl]butanoyl]amino]-4-methyl-pentanoate], the IC50 (as a rule, the point on the concentration scale where inhibition reaches its midpoint) is 1070 nM in data set [1] and 5.4 nM in data set [2]. For the same compound, in data set [3], the “effect on tumour weight / tumour growth (in words)” value is reported as “dose dependent effect on tumour weight; also recorded: particularly effective at inhibiting tumor growth”. For the same compound, the “DNA damage on nuclear DNA (HPRT 10.4 kb PCR band)” value in data set [4] is listed as “strong DNA damaging effect”. For the same compound, the “DNA damage on mitochondrial DNA (8.9 kb PCR band)” value in data set [5] is on record as “strong DNA damaging effect”. The “cells with DNA breaks” value with MM.1S cells (0.6 μM for 24 h) was above 90%. In addition, in the data set with MM.1S cells (0.006, 0.06, 0.6 or 6 μM for 24 h), the “dose response effect on DNA damage (TUNEL positive cells)” value was “induced DNA damage in a dose-dependent manner”. The “Ex 1 remaining after 4 h at room temp (%)” value (from here on “Ex 1 remaining … (%)”) was determined as 78% in data set [6] (2-Hydroxypropyl-β-cyclodextrin (Kleptose), Ultrapure water (MilliQ), weight ratio excipient:Ex 1 5); 84% in data set [6] (2-Hydroxypropyl-β-cyclodextrin (Kleptose), Ultrapure water (MilliQ), weight ratio excipient:Ex 1 10); 85% in data set [6] (2-Hydroxypropyl-β-cyclodextrin (Kleptose), Ultrapure water (MilliQ), weight ratio excipient:Ex 1 20); 82% in data set [6] (2-Hydroxypropyl-γ-cyclodextrin, Ultrapure water (MilliQ), weight ratio excipient:Ex 1 5); 86% in data set [6] (2-Hydroxypropyl-γ-cyclodextrin, Ultrapure water (MilliQ), weight ratio excipient:Ex 1 10); 79% in data set [6] (2-Hydroxypropyl-γ-cyclodextrin, Ultrapure water (MilliQ), weight ratio excipient:Ex 1 20). Also, the “Ex 1 remaining … (%)” value was 99% in data set [6] (Betadex Sulfobutyl Ether Sodium (Dexolve), Ultrapure water (MilliQ), weight ratio excipient:Ex 1 5); 101% in data set [6] (Betadex Sulfobutyl Ether Sodium (Dexolve), Ultrapure water (MilliQ), weight ratio excipient:Ex 1 10); 98% in data set [6] (Betadex Sulfobutyl Ether Sodium (Dexolve), Ultrapure water (MilliQ), weight ratio excipient:Ex 1 20); 93% in data set [6] (excipient None, solvent 0.9% Saline, ratio 0); 80% in data set [6] (excipient None, solvent 5% Glucose, ratio 0); 10% in data set [6] (excipient None, solvent DPBS, ratio 0). Further, the “Ex 1 remaining … (%)” value is given as 103% in data set [6] (excipient None, solvent Dimethylacetamide, ratio 0); 85% in data set [6] (excipient None, solvent Ultrapure water (MilliQ), ratio 0); 78% in data set [6] (γ-Cyclodextrin, Ultrapure water (MilliQ), weight ratio excipient:Ex 1 5); 82% in data set [6] (γ-Cyclodextrin, Ultrapure water (MilliQ), weight ratio excipient:Ex 1 10); 86% in data set [6] (γ-Cyclodextrin, Ultrapure water (MilliQ), weight ratio excipient:Ex 1 20).
